Measurements published in patent publication US20220152033A1, “COMPOSITIONS AND METHODS FOR DEEP DERMAL DRUG DELIVERY” (ARCUTIS BIOTHERAPEUTICS, INC., priority 2020, published 2022).

Legend:
women with acne = conditions: orally administered; cited from earlier work
JAK1 = JAK1 (Homo sapiens, UniProt P23458); conditions: cited from earlier work
[1] = Particle size distribution of SHR0302 by laser diffraction (Malvern, Hydro MV); type: physicochemical; conditions: SHR0302 used in Example 1; wet dispersion in ethyl acetate; FIG. 1
Text: In the pharmaceutical compositions of the present invention, the active ingredient is present as small particles. Particle size of the drug can be assessed using laser diffraction methods. Laser diffraction is recognized by standards and guidance agencies including ISO and ASTM and is widely used to determine particle size distributions. In conducting the assessment, the sample is passed through a laser beam, which results in laser light scattered at a range of angles. Detectors placed at fixed angles measure the intensity of light scattered at that position. A mathematical model is then applied to generate a particle size distribution. The particle size values reported herein are determined by using a liquid or wet dispersion method.
In particle size determinations, the median value is defined as the value where half of the population resides above this point, and half resides below this point. For particle size distributions the median is called the D50. The D50 is the size that splits the distribution with half above and half below this diameter. The distribution width may also be characterized by citing one, two or three values on the x-axis, typically some combination of the D10, D50, and D90. The D50, the median, has been defined above as the diameter where half of the population lies below this value. Similarly, 90 percent of the distribution lies below the D90, and 10 percent of the population lies below the D10.
A pharmaceutical composition comprising 3% SHR0302 suspended in dimethicone was prepared. The primary particle size distribution of the SHR0302 is characterized by a D10 value of less than about 0.25 μm; a D50 value of less than about 0.7 μm; and a D90 value of less than about 5 μm. The pharmaceutical composition was a transparent solution due to the particles being too small to scatter visible light. A Malvern Metasizer Model 3000 using the Hydro MV dispersion unit was used to determine the particle size distribution profile of SHR0302. […]

JAK1, sequence (P23458 whole entry, species assumed): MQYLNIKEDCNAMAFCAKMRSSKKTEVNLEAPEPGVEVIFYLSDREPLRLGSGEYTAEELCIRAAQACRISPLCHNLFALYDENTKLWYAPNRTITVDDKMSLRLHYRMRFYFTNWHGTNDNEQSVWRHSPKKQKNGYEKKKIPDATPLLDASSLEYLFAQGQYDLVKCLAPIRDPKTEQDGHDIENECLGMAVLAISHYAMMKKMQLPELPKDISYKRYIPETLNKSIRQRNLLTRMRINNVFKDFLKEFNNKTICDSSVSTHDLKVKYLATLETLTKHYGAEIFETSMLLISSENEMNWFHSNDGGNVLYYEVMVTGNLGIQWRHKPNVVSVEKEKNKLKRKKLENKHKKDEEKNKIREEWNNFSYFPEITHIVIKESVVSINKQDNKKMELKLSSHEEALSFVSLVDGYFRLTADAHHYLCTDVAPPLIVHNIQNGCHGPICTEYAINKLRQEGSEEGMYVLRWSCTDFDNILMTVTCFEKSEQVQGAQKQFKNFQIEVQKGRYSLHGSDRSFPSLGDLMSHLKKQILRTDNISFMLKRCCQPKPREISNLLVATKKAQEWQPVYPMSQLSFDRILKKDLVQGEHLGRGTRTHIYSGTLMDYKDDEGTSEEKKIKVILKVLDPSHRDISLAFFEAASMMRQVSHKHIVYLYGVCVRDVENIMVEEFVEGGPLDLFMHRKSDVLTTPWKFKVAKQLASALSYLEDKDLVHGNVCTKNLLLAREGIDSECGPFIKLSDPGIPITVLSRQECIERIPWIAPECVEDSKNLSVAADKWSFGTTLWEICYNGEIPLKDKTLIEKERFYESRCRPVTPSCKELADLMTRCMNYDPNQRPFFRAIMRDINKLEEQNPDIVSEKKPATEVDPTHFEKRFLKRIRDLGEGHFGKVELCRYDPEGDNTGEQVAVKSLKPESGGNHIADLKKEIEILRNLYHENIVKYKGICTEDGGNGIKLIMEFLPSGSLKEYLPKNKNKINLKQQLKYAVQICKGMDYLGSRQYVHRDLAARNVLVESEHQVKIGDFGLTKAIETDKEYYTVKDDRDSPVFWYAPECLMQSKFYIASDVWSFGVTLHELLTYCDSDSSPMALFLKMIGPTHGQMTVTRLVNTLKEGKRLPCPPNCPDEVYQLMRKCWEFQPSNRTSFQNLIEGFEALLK

## CC(=O)S[C@@H]1CC2=CC(=O)CC[C@]2(C)[C@H]2CC[C@@]3(C)[C@@H](CC[C@@]34CCC(=O)O4)[C@H]12 [spironolactone, 17-hydroxy-7α-mercapto-3-oxo-17α-pregn-4-ene-21-carboxylic acid γ-lactone acetate]
Women with acne
  efficacy in the treatment of women with acne: efficacious

## COc1nsc(NC(=O)N2C[C@H]3C[C@H](N(C)c4ncnc5[nH]ccc45)C[C@H]3C2)n1 [SHR0302, (3aR,5S,6aS)—N-(3-methoxyl-1,2,4-thiadiazol-5-yl)-5-(methyl(7H-pyrrolo[2,3-d]pyrimidin-4-yl)amino)hexahydrocyclopenta[c]pyrrole-2(1H)-carboxamide]
JAK1
  selectivity for JAK1 over JAK2: high selectively for JAK1 over JAK2
[1]
  primary particle size distribution D10 value: less than 0.25 μm
  primary particle size distribution D50 value: less than 0.7 μm
  primary particle size distribution D90 value: less than 5 μm
